# Measured values: PubChem BioAssay AID206 (DTP/NCI, 2004)
# “And” between values parts separate entries of the source, which are not always exact repeats. Equal values may be shown once. Records with an inconclusive call do not appear. Starred links: 1 amine or outer side, 2 acyl side, 3 side chain; linkers in the order of their positions; H or OH if unused. Positions of bridges follow the written chain, without caps; N, C: chain ends. Non-standard residues stand in square brackets, D forms with d. Residues, ends and D or L forms follow the SMILES beside them. Chains are numbered I, II in the order given. *: point of attachment. Quinoxaline2carbonyl = O=C(c1cnc2ccccc2n1)*; X2 = CCC(=O)CC1CC(C)CC(C(=O)[*:2])N1[*:1]; NMeV = CN[CH](C(=O)O)C(C)C; NMeC = CN[CH](CS)C(=O)O; X1 = CCCCCCCCC(C)C(=O)*; Aib = CC(C)(N)C(=O)O; X3 = CC(CN(C)CCO)N*
# Tested on: nude mice, HT29 intrarenal xenograft, tumor weight T/C
# Test: NCI In Vivo Anticancer Drug Screen. Data for tumor model HT29;CX-1 Human Adenocarcinoma (MER+) (intrarenal inoculation) in NU/NU Swiss (nude) mice
# Details: endpoint: mean tumor weight change, higher = larger tumour
# How it was run: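 Mice with transplanted tumors are dosed with compound while controls get vehicle only. Survival or tumor burden is then assessed per group, and the treated value is expressed relative to control.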
# [1] = dose: 4.0 mg/kg/injection, schedule: Q01DX010 (sc), vehicle: saline
# [2] = dose: 200.0 mg/kg/injection, schedule: Q04DX004 (sc), vehicle: Klucel (hydroxypropylcellulose) (HPC)
# [3] = dose: 400.0 mg/kg/injection, schedule: Q04DX004 (sc), vehicle: Klucel (hydroxypropylcellulose) (HPC)
# [4] = dose: 800.0 mg/kg/injection, schedule: Q04DX004 (sc), vehicle: Klucel (hydroxypropylcellulose) (HPC)
# [5] = dose: 300.0 mg/kg/injection, schedule: Q04DX004 (sc), vehicle: saline
# [6] = dose: 600.0 mg/kg/injection, schedule: Q04DX004 (sc), vehicle: saline
# [7] = dose: 1200.0 mg/kg/injection, schedule: Q04DX004 (sc), vehicle: saline
# [8] = dose: 2400.0 mg/kg/injection, schedule: Q04DX004 (sc), vehicle: saline
# [9] = dose: 100.0 mg/kg/injection, schedule: Q04DX004 (sc), vehicle: Klucel (hydroxypropylcellulose) (HPC)
structure (smiles),measurement,setting,value
Cc1c(N)nc(C(CC(N)=O)NCC(N)C(N)=O)nc1C(=O)NC(C(=O)NC(C)C(O)C(C)C(=O)NC(C(=O)NCCc1nc(-c2nc(C(=O)NCCCNC(C)c3ccccc3)cs2)cs1)C(C)O)C(OC1OC(CO)C(O)C(O)C1OC1OC(CO)C(O)C(OC(N)=O)C1O)c1cnc[nH]1 (configuration not stated),T/C,"dose: 2.0 mg/kg/injection, schedule: Q01DX010 (sc), vehicle: saline",64 % of control
same,T/C,[1],65 % of control
same,T/C,"dose: 8.0 mg/kg/injection, schedule: Q01DX010 (sc), vehicle: saline",76 % of control
same,T/C,"dose: 16.0 mg/kg/injection, schedule: Q01DX010 (sc), vehicle: saline",65 % of control
COc1cccc2c1C(=O)c1c(O)c3c(c(O)c1C2=O)C[C@@](O)(C(C)=O)C[C@@H]3OC1CC(N(C)C)C(O)C(C)O1 (some centres not stated),T/C,"dose: 2.5 mg/kg/injection, schedule: Q04DX004 (sc), vehicle: water",69 % of control
same,T/C,[1],54 % of control
same,T/C,"dose: 5.0 mg/kg/injection, schedule: Q04DX004 (sc), vehicle: water",45 % of control
same,T/C,"dose: 10.0 mg/kg/injection, schedule: Q04DX004 (sc), vehicle: water",97 % of control
CCC1(O)CC2CN(CCc3c([nH]c4ccccc34)C(C(=O)OC)(c3cc4c(cc3OC)N(C)C3C(O)(C(=O)NCCSSCCNC(=O)C5(O)C(O)C6(CC)C=CCN7CCC8(c9cc(C%10(C(=O)OC)CC%11CN(CCc%12c%10[nH]c%10ccccc%12%10)CC(O)(CC)C%11)c(OC)cc9N(C)C58)C76)C(O)C5(CC)C=CCN6CCC43C65)C2)C1 (configuration not stated),T/C,"dose: 0.38 mg/kg/injection, schedule: Q04DX004 (sc), vehicle: suspension in saline",85 % of control
same,T/C,"dose: 0.75 mg/kg/injection, schedule: Q04DX004 (sc), vehicle: saline",39 % of control
same,T/C,"dose: 0.75 mg/kg/injection, schedule: Q04DX004 (sc), vehicle: suspension in saline",84 % of control
same,T/C,"dose: 1.5 mg/kg/injection, schedule: Q04DX004 (sc), vehicle: saline",22 % of control and 29 % of control
same,T/C,"dose: 1.5 mg/kg/injection, schedule: Q04DX004 (sc), vehicle: suspension in saline",44 % of control
same,T/C,"dose: 3.0 mg/kg/injection, schedule: Q04DX004 (sc), vehicle: saline",-5 % of control
same,T/C,"dose: 3.0 mg/kg/injection, schedule: Q04DX004 (sc), vehicle: suspension in saline",55 % of control
same,T/C,"dose: 6.0 mg/kg/injection, schedule: Q04DX004 (sc), vehicle: suspension in saline",51 % of control
CCCCNC(C)[C@]1(O)Cc2c(O)c3c(c(O)c2[C@@H](OC2CC(N)C(O)C(C)O2)C1)C(=O)c1c(OC)cccc1C3=O (some centres not stated),T/C,"dose: 3.12 mg/kg/injection, schedule: Q01DX010 (sc), vehicle: saline",179 % of control
same,T/C,"dose: 12.5 mg/kg/injection, schedule: Q01DX010 (sc), vehicle: saline",103 % of control
same,T/C,"dose: 25.0 mg/kg/injection, schedule: Q01DX010 (sc), vehicle: saline",94 % of control
Cc1ccc(NCC2(/N=C/c3ccccc3)OC(CO)C(O)C2O)cc1 (configuration not stated),T/C,[2],81 % of control
same,T/C,[3],70 % of control
same,T/C,[4],92 % of control
same,T/C,"dose: 1600.0 mg/kg/injection, schedule: Q04DX004 (sc), vehicle: Klucel (hydroxypropylcellulose) (HPC)",94 % of control
C[C@H]1C[C@@H]2[C@H]([C@@H](O)C[C@@]3(C)[C@H]2CC[C@]3(O)C(=O)CO)[C@@]2(C)C=CC(=O)C=C12,T/C,[2],69 % of control
COc1cccc2c1C(=O)c1c(O)c3c(c(O)c1C2=O)CC(O)(C(=O)CO)CC3OC1CC(N)C(O)C(C)O1 (configuration not stated),T/C,"dose: 48.0 mg/kg/injection, schedule: Q01DX010 (sc), vehicle: saline",90 % of control
C[C@@](O)(/C=C/[C@H]1CC=CC(=O)O1)[C@@H](C[C@@H](O)\C=C/C=C\C=C\CO)OP(=O)(O)O,T/C,"dose: 9.38 mg/kg/injection, schedule: Q04DX004 (sc), vehicle: saline",76 % of control
same,T/C,"dose: 18.75 mg/kg/injection, schedule: Q04DX004 (sc), vehicle: saline",102 % of control
same,T/C,"dose: 37.5 mg/kg/injection, schedule: Q04DX004 (sc), vehicle: saline",72 % of control
CC(=O)O[C@H]1C(=O)[C@@]2(C)[C@H]([C@H](OC(=O)c3ccccc3)[C@]3(O)C[C@H](OC(=O)[C@H](O)[C@@H](NC(=O)c4ccccc4)c4ccccc4)C(C)=C1C3(C)C)[C@]1(OC(C)=O)CO[C@@H]1C[C@@H]2O,T/C,"dose: 400.0 mg/kg/injection, schedule: Q01DX010 (sc), vehicle: Klucel (hydroxypropylcellulose) (HPC)",3 % of control and 12 % of control and 16 % of control
O=c1ncccn1[C@@H]1O[C@H](CO)[C@H](O)C1O (some centres not stated),T/C,[5],110 % of control
same,T/C,[6],87 % of control
same,T/C,[7],51 % of control
same,T/C,[8],55 % of control
CCSC(=O)N1c2ccc(OC)cc2C=CC1C#N (configuration not stated),T/C,"dose: 600.0 mg/kg/injection, schedule: Q04DX004 (sc), vehicle: saline with Tween-80",93 % of control
same,T/C,"dose: 1200.0 mg/kg/injection, schedule: Q04DX004 (sc), vehicle: saline with Tween-80",84 % of control
same,T/C,"dose: 2400.0 mg/kg/injection, schedule: Q04DX004 (sc), vehicle: saline with Tween-80",53 % of control
O=C[C@@H](CO)O[C@H](C=O)n1cnc2c(=O)[nH]cnc21,T/C,"dose: 225.0 mg/kg/injection, schedule: Q04DX004 (sc), vehicle: saline",76 % of control
same,T/C,"dose: 450.0 mg/kg/injection, schedule: Q04DX004 (sc), vehicle: saline",86 % of control
same,T/C,"dose: 900.0 mg/kg/injection, schedule: Q04DX004 (sc), vehicle: saline",93 % of control
C[C@H](N)C(=O)N[C@@H]1[C@H]2C(=C(O)C[C@@H](O)[C@@H]2O)C(=O)O[C@@H]1C,T/C,[5],107 % of control
same,T/C,[6],81 % of control
same,T/C,[7],68 % of control
same,T/C,[8],92 % of control
O=c1[nH]c(=O)n(C2CC(O)C(CO)O2)cc1C(F)(F)F (configuration not stated),T/C,"dose: 100.0 mg/kg/injection, schedule: Q01DX010 (sc), vehicle: saline",202 % of control
same,T/C,"dose: 200.0 mg/kg/injection, schedule: Q01DX010 (sc), vehicle: saline",104 % of control
same,T/C,"dose: 400.0 mg/kg/injection, schedule: Q01DX010 (sc), vehicle: saline",73 % of control
O=C(O)c1cc(Cc2ccc(O)c(C(=O)O)c2)ccc1O (tested in a mixture with another compound),T/C,"dose: 300.0 mg/kg/injection, schedule: Q04DX004 (sc), vehicle: Klucel (hydroxypropylcellulose) (HPC)",62 % of control
same,T/C,"dose: 600.0 mg/kg/injection, schedule: Q04DX004 (sc), vehicle: Klucel (hydroxypropylcellulose) (HPC)",57 % of control
same,T/C,"dose: 1200.0 mg/kg/injection, schedule: Q04DX004 (sc), vehicle: Klucel (hydroxypropylcellulose) (HPC)",114 % of control
same,T/C,"dose: 2400.0 mg/kg/injection, schedule: Q04DX004 (sc), vehicle: Klucel (hydroxypropylcellulose) (HPC)",104 % of control
"CC1NC(=O)C(NC(=O)c2cnc3ccccc3n2)COC(=O)C(C(C)C)N(C)C(=O)C2CSSCC(C(=O)N(C)C(C(C)C)C(=O)OCC(NC(=O)c3cnc4ccccc4n3)C(=O)NC(C)C(=O)N2C)N(C)C1=O (configuration not stated) (I: Quinoxaline2carbonyl-SA[NMeC][NMeV] / II: Quinoxaline2carbonyl-SA[NMeC][NMeV]; ester I:1-II:C, I:C-II:1; disulfide I:3-II:3; configuration not given here)",T/C,[9],115 % of control
same,T/C,[2],96 % of control
same,T/C,[3],74 % of control
O=C1CC2(C(=O)N1CN1CCCCC1)c1ccccc1-c1ccccc12,T/C,[9],43 % of control
same,T/C,[3],69 % of control
same,T/C,[4],70 % of control
CC1CC(C)CC(C)C(O)/C(C#N)=C/C=C/CC(C2CCCC2C(=O)O)OC(=O)CC(O)C(C)C1 (configuration not stated),T/C,"dose: 1.5 mg/kg/injection, schedule: Q04DX004 (sc), vehicle: Klucel (hydroxypropylcellulose) (HPC)",87 % of control
same,T/C,"dose: 3.0 mg/kg/injection, schedule: Q04DX004 (sc), vehicle: Klucel (hydroxypropylcellulose) (HPC)",76 % of control
same,T/C,"dose: 6.0 mg/kg/injection, schedule: Q04DX004 (sc), vehicle: Klucel (hydroxypropylcellulose) (HPC)",40 % of control
same,T/C,"dose: 12.0 mg/kg/injection, schedule: Q04DX004 (sc), vehicle: Klucel (hydroxypropylcellulose) (HPC)",69 % of control
CCCCCCCCC(C)C(=O)N1CCCC1C(=O)N1C(CC(=O)CC)CC(C)CC1C(=O)NC(C)C(=O)NC(C)(C)C(=O)NC(C)(C)C(=O)NC(C(=O)NC(C)C(=O)NC(C)(C)C(=O)NC(C)(C)C(=O)NC(C)CN(C)CCO)C(C)CC (configuration not stated) (X1-P[X2]A[Aib][Aib]IA[Aib][Aib]-X3; configuration not given here),T/C,"dose: 1.88 mg/kg/injection, schedule: Q04DX004 (sc), vehicle: Klucel (hydroxypropylcellulose) (HPC)",94 % of control
same,T/C,"dose: 3.75 mg/kg/injection, schedule: Q04DX004 (sc), vehicle: Klucel (hydroxypropylcellulose) (HPC)",59 % of control and 67 % of control
